From patent US8609690B2, “Aryl- and heteroarylcarbonyl derivatives of substituted nortropanes, medicaments containing such compounds and their use” (Boehringer Ingelheim International GmbH, priority 2008, dated 2013)

target: T1, 11β-HSD 1 (Homo sapiens, UniProt P28845); assay: In vitro inhibition of 11β-HSD 1, HTRF detection of cortisol generated by human liver microsomes; assay type: biochemical; settings: 1 μM test compound, 100% indicates no inhibition, zero or below zero indicates complete inhibition (relative to carbenoxolone)
T1 construct: detecting cortisol generated from cortisterone by human liver microsomes; from tissue; host or cells: human liver microsomes
Procedure, shortened: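 Human liver microsomes with test compound were incubated 1 h at 37 °C in Tris buffer, pH 6.0, with 200 μM NADPH and 80 nM cortisone. Cortisol formed was detected by competitive HTRF immunoassay (665/615 nm ratio) and calibrated against a cortisol standard curve. Values are activities at 1 μM compound relative to carbenoxolone, where 100% indicates no inhibition.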

T1 sequence (P28845 whole entry): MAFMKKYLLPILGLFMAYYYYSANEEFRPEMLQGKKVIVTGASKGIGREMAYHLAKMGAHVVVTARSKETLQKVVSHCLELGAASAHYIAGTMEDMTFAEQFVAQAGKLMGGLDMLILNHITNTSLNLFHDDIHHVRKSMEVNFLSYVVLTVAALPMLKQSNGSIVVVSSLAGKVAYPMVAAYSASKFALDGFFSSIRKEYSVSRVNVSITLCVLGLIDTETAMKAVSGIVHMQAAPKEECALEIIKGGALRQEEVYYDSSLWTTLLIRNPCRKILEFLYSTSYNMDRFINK

| Compound | Inhibitory activity on 11β-HSD 1, % CTL |
| --- | --- |
| Cc1cc(C(=O)N2[C@@H]3CC[C@H]2C[C@@H](c2ccc(F)cc2)C3)ccc1O [Example 166, endo-[3-(4-Fluoro-phenyl)-8-aza-bicyclo[3.2.1]oct-8-yl]-(4-hydroxy-3-methyl-phenyl)-methanone] | −33 % CTL |
| O=C(c1ccc(O)c(Cl)c1)N1[C@@H]2CC[C@H]1C[C@@H](c1ccc(F)cc1)C2 [Example 167, endo-(3-Chloro-4-hydroxy-phenyl)-[3-(4-fluoro-phenyl)-8-aza-bicyclo[3.2.1]oct-8-yl]-methanone] | −22 % CTL |
| COc1c(F)cc(C(=O)N2[C@@H]3CC[C@H]2C[C@@H](c2ccc(F)cc2)C3)cc1F [Example 168, endo-(3,5-Difluoro-4-methoxy-phenyl)-[3-(4-fluoro-phenyl)-8-aza-bicyclo[3.2.1]oct-8-yl]-methanone] | 6 % CTL |
| O=C(c1ccc(O)c(F)c1)N1[C@@H]2CC[C@H]1C[C@@H](c1ccc(F)cc1)C2 [Example 169, endo-(3-Fluoro-4-hydroxy-phenyl)-[3-(4-fluoro-phenyl)-8-aza-bicyclo[3.2.1]oct-8-yl]-methanone] | −25 % CTL |
| COc1ccc(C(=O)N2[C@@H]3CC[C@H]2C[C@@H](c2ccc(F)cc2)C3)cc1C [Example 170, endo-[3-(4-Fluoro-phenyl)-8-aza-bicyclo[3.2.1]oct-8-yl]-(4-methoxy-3-methyl-phenyl)-methanone] | −34 % CTL |
| COc1cc(C(=O)N2[C@@H]3CC[C@H]2C[C@@H](c2ccc(F)cc2)C3)ccc1O [Example 171, endo-[3-(4-Fluoro-phenyl)-8-aza-bicyclo[3.2.1]oct-8-yl]-(4-hydroxy-3-methoxy-phenyl)-methanone] | −26 % CTL |
| O=C(c1cc(F)c(O)c(F)c1)N1[C@@H]2CC[C@H]1C[C@@H](c1ccc(F)cc1)C2 [Example 172, endo-(3,5-Difluoro-4-hydroxy-phenyl)-[3-(4-fluoro-phenyl)-8-aza-bicyclo[3.2.1]oct-8-yl]-methanone] | 0 % CTL |
| Nc1ccc(C(=O)N2[C@@H]3CC[C@H]2C[C@@H](c2ccc(F)cc2)C3)cc1Cl [Example 173, endo-(4-Amino-3-chloro-phenyl)-[3-(4-fluoro-phenyl)-8-aza-bicyclo[3.2.1]oct-8-yl]-methanone] | −46 % CTL |
| O=C(c1ccc(O)c(C(F)(F)F)c1)N1[C@@H]2CC[C@H]1C[C@@H](c1ccc(F)cc1)C2 [Example 174, endo-[3-(4-Fluoro-phenyl)-8-aza-bicyclo[3.2.1]oct-8-yl]-(4-hydroxy-3-trifluoromethyl-phenyl)-methanone] | −40 % CTL |
| COc1cc(C(=O)N2[C@@H]3CC[C@H]2C[C@@H](c2ccc(F)cc2)C3)cc(Cl)c1O [Example 175, endo-(3-Chloro-4-hydroxy-5-methoxy-phenyl)-[3-(4-fluoro-phenyl)-8-aza-bicyclo[3.2.1]oct-8-yl]-methanone] | −37 % CTL |
| Nc1ccc(C(=O)N2[C@@H]3CC[C@H]2C[C@@H](c2ccc(F)cc2)C3)cc1F [Example 176, endo-(4-Amino-3-fluoro-phenyl)-[3-(4-fluoro-phenyl)-8-aza-bicyclo[3.2.1]oct-8-yl]-methanone] | −42 % CTL |
| Nc1ccc(C(=O)N2[C@@H]3CC[C@H]2C[C@@H](c2ccc(F)cc2)C3)cc1 [Example 177, endo-(4-Amino-phenyl)-[3-(4-fluoro-phenyl)-8-aza-bicyclo[3.2.1]oct-8-yl]-methanone] | −44 % CTL |
| Nc1c(Cl)cc(C(=O)N2[C@@H]3CC[C@H]2C[C@@H](c2ccc(F)cc2)C3)cc1Cl [Example 178, endo-(4-Amino-3,5-dichloro-phenyl)-[3-(4-fluoro-phenyl)-8-aza-bicyclo[3.2.1]oct-8-yl]-methanone] | −22 % CTL |
| O=C(c1cc(F)c(O)c(Cl)c1)N1[C@@H]2CC[C@H]1C[C@@H](c1ccc(F)cc1)C2 [Example 179, endo-(3-Chloro-5-fluoro-4-hydroxy-phenyl)-[3-(4-fluoro-phenyl)-8-aza-bicyclo[3.2.1]oct-8-yl]-methanone] | −11 % CTL |
| O=C(c1ccc2[nH]ncc2c1)N1[C@@H]2CC[C@H]1C[C@@H](c1ccc(F)cc1)C2 [Example 180, endo-[3-(4-Fluoro-phenyl)-8-aza-bicyclo[3.2.1]oct-8-yl]-(1H-indazol-5-yl)-methanone] | −41 % CTL |
| COc1cc(C(=O)N2[C@@H]3CC[C@H]2C[C@@H](c2ccc(F)cc2)C3)cc(OC)c1O [Example 181, endo-[3-(4-Fluoro-phenyl)-8-aza-bicyclo[3.2.1]oct-8-yl]-(4-hydroxy-3,5-dimethoxy-phenyl)-methanone] | 18 % CTL |
| endo-[3-(3,4-Difluoro-phenyl)-8-aza-bicyclo[3.2.1]oct-8-yl]-(2,3-dihydro-benzo[1,4]dioxin-6-yl)-methanone [Example 137] | 16 % CTL |
